Data reported in patent publication US9581577B2, “Miniaturized flow-through cell” (NATIONAL UNIVERSITY OF SINGAPORE, priority 2012, dated 2017).
Each block holds one compound with its values, some of them ahead of it.

Experiments:
[1] = Endoxifen permeation studies with MFtC, with or without permeation enhancers; type: in vitro ADME, rat; details: for Flux / Lag time: MFtC, rat abdominal skin, mean ± SD, N = 3
Experimental: A fluorescence assay for endoxifen was established whereby endoxifen was converted to highly fluorescent phenanthrene derivatives following exposure to ultraviolet (UV) irradiation. A UV transilluminator (Bio Rad, USA) at λ=302 nm and an intensity of 866 μW/cm^2 was used for the conversion of endoxifen to its phenanthrene derivatives. The fluorescence emitted from the phenanthrene derivatives of endoxifen after various durations of UV exposure was determined with a microplate reader at a λex=260 nm and a λem=380 nm. Fluorescence measurements from non-UV exposed samples served as a control. The optimum duration of UV irradiation was determined with a 10 μg/ml solution of endoxifen. For all subsequent experiments, this duration of UV irradiation was fixed at the optimal time. The validated MFtC 5 mounted with rat abdominal skin was employed to determine the permeation profile of endoxifen. Donor solutions comprised of endoxifen (2 mg/ml) in PG with and without permeation enhancers (PEs) namely limonene, myristyl lactate and oleic acid at 0.5% (w/v) were prepared. All solutions were sonicated for 3 min to ensure dissolution of endoxifen and PEs. Each donor compartment 220 was filled with 200 μl of donor solution. Endoxifen was allowed to permeate through the rat abdominal skin over 48 hr. The experiments were performed in triplicates. Samples of permeated solutions were collected at specific time intervals and stored at −20° C. until analysis. The flux at steady state (Jss) and lag time were obtained from the cumulative plots. The effect of the PEs on the flux was evaluated by calculating the enhancement index (EI). Independent sample t-test (IBM SPSS PASW Statistics 18) was used to compare the permeation parameters obtained from experiments involving horizontal diffusion cell and MFtC 5. For endoxifen permeation experiments, one-way analysis of variance (ANOVA) with Scheffe post hoc test was used for the comparison of the permeation parameters of endoxifen with or without the different PEs. For all tests, p<0.05 was considered significant.

[2] = Flux through rat skin translated to human skin; type: in vitro ADME; details: translated from the rat skin flux of 6.52 μg/cm^2/hr; limonene as PE in PG
[3] = cited from earlier work
[4] = endoxifen in 60% (v/v) ethanol-phosphate buffer with 0.5% (w/v) oleic acid; cited from earlier work
[5] = Permeation across rat abdominal skin in horizontal diffusion cell (HDC); type: in vitro ADME
Experimental: To evaluate the performance characteristics of the MFtC 5, permeation of model compounds (rhodamine B and mangostin) using a horizontal diffusion cell (TK-6H1, Shanghai Kai Kai Technology, China) and a MFtC 5 was compared. Rat abdominal skins were obtained from the National University of Singapore Animal Centre and kept at −80° C. until use. Prior to the permeation studies, the skins were thawed and hair was completely removed with an electrical shaver and hair remover cream (Veet). Subcutaneous fat and connective tissues were also lightly trimmed off. All animal experiments were approved by Institutional Animal Care and Use Committee, National University of Singapore. A 2.0 cm×2.0 cm piece of rat abdominal skin was mounted between the donor and receptor compartments of the horizontal diffusion cell, with the stratum corneum side facing the donor compartment. The effective diffusion area was 1.13 cm^2. Each donor cell contained 4.5 ml of each model compound in propylene glycol (PG) and the receptor cell contained the same volume of PBS. Mangostin was used at a concentration of 2.3 mg/ml and rhodamine B at concentrations of 1 mg/ml and 5 mg/ml. Both compartments were thermostated at 37° C. by means of a surrounding temperature controlled water jacket. In order to minimize evaporation, all cell openings were occluded with parafilm. The fluids in both compartments were maintained in a stirred state by a Teflon coated magnetic stirrer at a speed of 250±1.25 rpm. Samples (1 ml) were withdrawn from the receptor compartment for analysis at specific time intervals. Upon each sample withdrawal, the receptor compartment was immediately replaced by an equal volume of fresh solution. The experiments were performed in triplicates or more. Skin samples from the same rat were used for comparisons between the horizontal diffusion cell and a MFtC 5 to minimise inter-animal variability. All experiments were performed at least three times. The samples were collected at the same time intervals and stored at 4° C. until analysis. During analysis, samples were first centrifuged at 13,000 rpm (Sorvall Biofuge Pico, UK) for 5 min. The supernatant was obtained and analyzed according to their respective assay methods as reported below. Concentration of rhodamine B was determined by fluorescence spectroscopy with a microplate reader (Tecan, Switzerland) at an excitation wavelength (λex)=554 nm and an emission wavelength (λem)=586 nm at ambient temperature. All samples were protected from light to prevent possible light quenching of fluorescence during the assay. Mangostin concentration was determined with a reversed phase HPLC (Hitachi, Japan) using a C18 column (5 μm, 4.6 mm×250 mm; ODS Hypersil, Thermo Scientific) maintained at ambient temperature. The mobile phase comprised of methanol and ultrapure water (90:10, v/v) delivered at a flow rate of 1 ml/min. The UV detector (L-2400, Hitachi, Japan) was operated at a λ=320 nm. Under these conditions, the mangostin peak appeared at a retention time of 6.8 min.

[6] = Permeation across rat abdominal skin in miniaturized flow-through cell (MFtC), validation; type: in vitro ADME
Experimental: To evaluate the performance characteristics of the MFtC 5, permeation of model compounds (rhodamine B and mangostin) using a horizontal diffusion cell (TK-6H1, Shanghai Kai Kai Technology, China) and a MFtC 5 was compared. Rat abdominal skins were obtained from the National University of Singapore Animal Centre and kept at −80° C. until use. Prior to the permeation studies, the skins were thawed and hair was completely removed with an electrical shaver and hair remover cream (Veet). Subcutaneous fat and connective tissues were also lightly trimmed off. All animal experiments were approved by Institutional Animal Care and Use Committee, National University of Singapore. Similar conditions were used in the MFtC 5 or MFtC 5 setup. A 1.0 cm×1.0 cm piece of rat abdominal skin was mounted between the donor compartment 220 and the receptor compartment 120 with the stratum corneum side facing the donor compartment 220 of the MFtC 5. In some embodiments, the area and shape of the skin/membrane of the present disclosure can be modified as needed or per application requirements. A sealant or sealing substance or material such as high vacuum grease (Dow Corning, USA) was applied to the donor compartment 220 on the unexposed stratum corneum side, in contact with the receptor compartment 120, to minimize leakage from the donor compartment 220. Other sealants, sealing substances, or high vacuum grease for minimizing leakage from the donor compartment 220 can be selected as needed or per application requirements. […] On the other hand, leakage of the donor solution could be observed when no grease was applied. In an embodiment of the present disclosure, the effective diffusion area was 0.283 cm^2. In some embodiments, the effective diffusion area can be about 0.283 cm^2 to about 0.5 cm^2. In an embodiment of the present disclosure, 70 μl of the donor solution was added into the donor compartment 220. In some embodiments, the volume of the donor solution added to the donor compartment 220 can be about 70 μl to about 300 μl. In an embodiment of the present disclosure, the receptor fluid or receptor solution comprised degassed PBS solution. In some embodiments, the receptor solution of the present disclosure can comprise other solutions such as water, buffers, extracellular fluid, lung lining fluid, gastric fluid, and/or cerebrospinal fluid. In an embodiment of the present disclosure, the flow rate of receptor solution through each diffusion cell 50 can be controlled by an infusion pump system 60, wherein the flow rate can be about 0.20 ml/hr. In some embodiments, the flow rate of receptor solution through each diffusion cell 50 can be reduced or increased to a flow rate of about 0.828 μl/hr to about 1270 ml/hr as needed or per application requirements. An embodiment of a MFtC 5 of the present disclosure was placed in a temperature controlling system such as a water bath 80 maintained at 37° C. using a hot plate to control the temperature. In some embodiments, the temperature can be adjusted as needed or per application requirements. In order to minimize evaporation, the donor compartment 220 and sampling container(s) 70 such as a sampling microfuge tube(s) 70 were occluded with parafilm. The sampling container(s) 70 such as a sampling tube(s) 70 was collected at specific time intervals and replaced by a sampling container(s) 70 such as an empty sampling tube(s) 70 for subsequent collections. The experiments were performed in triplicates or more. In some embodiments, the method of collecting the sample can be modified as needed or per application requirements. Skin samples from the same rat were used for comparisons between the horizontal diffusion cell and a MFtC 5 to minimise inter-animal variability. All experiments were performed at least three times. The samples were collected at the same time intervals and stored at 4° C. until analysis. During analysis, samples were first centrifuged at 13,000 rpm (Sorvall Biofuge Pico, UK) for 5 min. […]

[7] = ENX 2 mg/ml in PG alone (control)
[8] = ENX 2 mg/ml in PG with limonene 0.5% (w/v)
[9] = ENX 2 mg/ml in PG with myristyl lactate 0.5% (w/v)
[10] = ENX 2 mg/ml in PG with oleic acid 0.5% (w/v)
[11] = HDC, donor 1 mg/ml in propylene glycol, rat abdominal skin, mean ± SD
[12] = HDC, donor 5 mg/ml in propylene glycol, rat abdominal skin, mean ± SD
[13] = MFtC, donor 1 mg/ml in propylene glycol, rat abdominal skin, mean ± SD
[14] = MFtC, donor 5 mg/ml in propylene glycol, rat abdominal skin, mean ± SD

Flux [1, 7]: 0.65 ± 0.01 μg/cm^2/hr
Lag time [1, 7]: 1.03 ± 1.40 h
Flux [1, 8]: 6.52 μg/cm^2/hr
Lag time [1, 8]: 3.75 ± 2.37 h
Flux ([1]; ENX 2 mg/ml in PG with limonene 0.5% (w/v), listed as ENX): 6.52 ± 1.41 μg/cm^2/hr
Flux [1, 9]: 5.33 ± 0.13 μg/cm^2/hr
Lag time [1, 9]: 7.62 ± 2.18 h
Flux [1, 10]: 4.09±1.07 μg/cm^2/hr
Lag time [1, 10]: 7.58 ± 4.04 h
Flux ([1]; ENX 2 mg/ml in PG with oleic acid 0.5% (w/v), listed as ENX): 4.09 ± 1.07 μg/cm^2/hr
Enhancement index (EI) = Jss (with enhancer)/Jss (without enhancer) ([1]; ENX in PG with limonene 0.5% (w/v) versus PG alone): 9.99
Enhancement index (EI) = Jss (with enhancer)/Jss (without enhancer) ([1]; ENX in PG with myristyl lactate 0.5% (w/v) versus PG alone): 8.17
Enhancement index (EI) = Jss (with enhancer)/Jss (without enhancer) ([1]; ENX in PG with oleic acid 0.5% (w/v) versus PG alone): 6.26
Flux through human skin [2]: 2.17 μg/cm^2/hr
SMILES: CC/C(=C(\c1ccc(O)cc1)c1ccc(OCCNC)cc1)c1ccccc1 [endoxifen]
log P [3]: 4.94
Highest flux reported (Jss) [4]: 0.22 μg/cm^2/hr

SMILES: C=C(C)[C@H]1CC=C(C)CC1 [limonene, (R)-(+)-limonene]
log P [3]: 4.83

SMILES: COc1c(O)cc2oc3cc(O)c(CC=C(C)C)c(O)c3c(=O)c2c1CC=C(C)C [mangostin, α-mangostin]
Flux ([5]; rat, 48 h, 2.3 mg/ml): 7.06 ± 1.06 μg/cm^2/hr
Lag time ([5]; rat, 48 h, 2.3 mg/ml): 7.19 ± 0.47 h
log P [3]: 6.64
Flux ([6]; rat, 48 h, 2.3 mg/ml): 8.34 ± 3.40 μg/cm^2/hr
Lag time ([6]; rat, 48 h, 2.3 mg/ml): 14.5 ± 2.71 h

SMILES: CCCCCCCCCCCCCCOC(=O)C(C)O (stereo not shown) [myristyl lactate]
log P [3]: 6.08

SMILES: CCCCCCCC/C=C\CCCCCCCC(=O)O [oleic acid]
log P [3]: 7.42

SMILES: CC(O)CO (stereo not shown) [propylene glycol]
log P [3]: −1.00

Flux [5, 11]: 0.04 ± 0.03 μg/cm^2/hr
Lag time [5, 11]: 17.7 ± 3.47 h
Flux [5, 12]: 0.07 ± 0.01 μg/cm^2/hr
Lag time [5, 12]: 11.4 ± 3.31 h
Flux [6, 13]: 0.05 ± 0.02 μg/cm^2/hr
Lag time [6, 13]: 22.1 ± 4.07 h
Flux [6, 14]: 0.05 ± 0.02 μg/cm^2/hr
Lag time [6, 14]: 8.35 ± 4.75 h
SMILES: CCN(CC)c1ccc2c(-c3ccccc3C(=O)O)c3ccc(=[N+](CC)CC)cc-3oc2c1.[Cl-] [rhodamine B]
log P [3]: 2.43
